# Assay results as given in patent EP3130339A1, “A COMPOUND FOR USE IN THE TREATMENT OF COMORBID ANXIETY DISORDER AND DEPRESSION DISORDER” (Aché Laboratórios Farmacêuticos S.A., priority 2015, dated 2017).
# Values joined by “and” are separate entries in the source; they are usually repeats but may differ in a detail not shown here. Equal entries are not always repeated.
# How the values were obtained:
# Assay type in all cases: in vivo
# mice (RJ:NMRI, males) = assay: Bright/dark box test (clear/dark transition test); conditions: for permanence time in the clear compartment (result in words): summary of Table 2 over the doses tested, i.p.
# Procedure: This model, also known as clear/dark transition test, is characterized as a model of conflict, based on the natural tendency to explore new environments versus avoidance of doing so, due to the potential possibility of the presence of aversive stimuli. It is an animal model based on independent behavior of conditioning, therefore, there is no need of learning. In rodents, this model is grounded in their natural aversion to excessively clear environments. This aversion is measured from the ansiogenic component expressed by lower exposure of the animal to the clear compartment.
# The method employed followed the procedure described by Crawley and Goodwin (Pharmacol. Biochem. Behav. 1981, 15, 695-699).
# The animals were placed on the clear field of a box comprising two compartments, one being illuminate and open (25 x 27 x 27 cm) and the other being dark and close (20 x 27 x 27 cm). Data on the length of stay in each compartment were collected over the three-minute test.
# This test aimed at obtaining a comparison profile of response of Compound (A) (3-(2-(-4-(2-methoxyphenyl)piperazin-1-yl)ethyl)quinazolin-4(3H)-one and Compound (B) 3-(2-(4-(2-cyanophenyl)piperazin-1-yl)ethyl)quinazolin-4(3H)-one with known compounds that act by different mechanisms. The comparative compounds were alprazolam (benzodiazepine), paroxetine (ISRS-type antidepressant), venlafaxine (IRSN-type antidepressant) and agomelatine (antidepressant that acts on melatonin and serotonin 5-HT2C receptor). The following doses were employed in this study: Table 1: Tested compounds, concentrations and route of administration.
# In this blind study, ten mice (RJ:NMRI, males) were employed per group. Clobazam (12 mg/Kg, i.p. route) was administered under the same study conditions as the reference compound. All compounds were administered 30 minutes before the test.
# The test data of the response of substances were analyzed comparing the groups treated with the control vehicle using one-way ANOVA followed by post-hoc analysis of Dunnett's test. The data of the reference substance obtained were analyzed using unpaired Student's t test.
# Mice [1] = assay: Sphere hiding test; conditions: for number of hidden spheres (result in words): summary of Table 4 over the doses tested
# Procedure: This test is based on the natural aversive behavior to glass and marble of rodents, where the presence of these objects triggers the action of burying (hiding). In this test, there are potential behavioral changes of medicines that may promote an ansiogenic or anxiolytic profile. This is determined by the increase or decrease of the behavior of hiding glass spheres ("marbles") that are randomly distributed on the surface of a box lined with sawdust. The increase of the number of covered balls is an indicative of anxiety, since it is supposed to represent a foreign agent to the animal, whose presence may pose threat. The administration of anxiolytics medicines decreases the number of spheres buried in non-sedative doses.
# The method employed followed the procedure described by Broekkamp et al. (Eur. J. Pharmacol., 1986, 126, 223-229).
# Mice were individually placed in transparent plastic cages (33 x 21 x 18 cm), with the floor covered by a 5 cm layer of sawdust and 25 glass spheres grouped in the center of the cage. The cage was covered with a perforated plastic cover. Each test cage, along with the glass spheres, were previously impregnated with "mouse odor", and a group of 10 mice was left inside for 15 minutes.
# The number of glass spheres covered with sawdust (2/3 or more of the surface) was counted at the end of the 30 minutes of the test.
# Each study group consisted of 12 mice. The test was partially blind (substances tested versus vehicle of the tested substances).
# This test aimed at obtaining a comparison profile of response of Compound (A) (3-(2-(-4-(2-methoxyphenyl)piperazin-1-yl) ethyl) quinazolin-4 (3H) -one and Compound (B) (3-(2-(4-(2-cyanophenyl)piperazin-1-yl)ethyl)quinazolin-4(3H)-one) with known compounds that act by different mechanisms. The comparative compounds used were alprazolam (benzodiazepine) and paroxetine (ISRS-type antidepressant). These compounds were tested in the following doses: Table 3: Compounds tested, concentrations employed and route of administration.
# Fluoxetine (ISRI antidepressant) was used as the positive control substance in the test, and was administered at 32 mg/kg (i.p.).
# Quantitative data for the tested substances (number of glass spheres coated with sawdust) were evaluated by comparison with the treated groups using one-way ANOVA followed by planned comparisons against the appropriate vehicles. Data with fluoxetine were compared to the vehicle control using unpaired Student's t test.
# Mice [2] = assay: Non-precipitated withdrawal test
# Source text: This test aims at assessing how the sudden cessation of the administration of a medicine can be associated with the occurrence of withdrawal identifiable symptoms. The types of symptoms examined are feed changes, weight gain, body temperature and the occurrence of one or behavioral symptoms and others, such as tremor, teeth chattering, wet dog body-shaking, diarrhea or piloerection. The triggering of these signs is a first sign that the substance induces dependence after repeated administration.
# The method employed followed the procedure described by Goudie and Leathley (Psychopharmacology 1991, 103: 529-537).
# Two mice per cage received two administrations per day (approximately 10:00 hours and 16:00 hours) of the test substance continuously during 19 days (day 1 to day 19), with the last administration occurring next to 10:00 hours of the 20th day. Control animals received the same number of administrations of vehicle. […] During the discontinuation phase, all animals received administration of vehicle once a day.
# Additionally to the observations made after discontinuing the medicines, the same measures were taken at day 1 and day 10 of treatment, in addition to the 3 last days (days 18 to 20) immediately prior to administration of the dose in the morning to assess the effects of medicines before discontinuation. After discontinuation, the first observation was performed 24 hours after the last administration and, from then on, every 24 hours (days 21 to 28).
# For daily measurements, the animals were evaluated with respect to behavioral changes during 5 minutes (two animals simultaneously observed). Then, their body weights and rectal temperatures were measured. Then, they received the proper treatment and were returned to their cages.
# The leftover food in their supporters was weighed immediately after all animals return to their cages (only in the mornings), and food consumption in the previous 24 hours was determined.
# The body weights, feed consumption and rectal temperatures were also measured 24 hours before the first administration, as reference values. The treated groups were homogenized with regard to body weights on the day preceding the first administration of the tested substances.
# Compound (A) (3-(2-(-4-(2-methoxyphenyl)piperazin-1-yl)ethyl)quinazolin-4 (3H)-one) was evaluated in 3 doses (3, 10 and 30 mg/kg) administered orally (p.o.) and compared to the vehicle (control group).
# Chlordiazepoxide (64 mg/kg, p.o.) was administered under the same experimental conditions, and was employed as reference substance in the test.
# Paroxetine (15 and 30 mg/kg p.o.) was administered under the same experimental conditions and was used as comparative substance.
# The test was blinded. Data were analyzed by comparing substances with their control vehicles employing one-way ANOVA with the group as a factor followed by post-hoc Dunnett tests. Data with the reference substance were analyzed using unpaired Student's t test.
# [3] = 4 mg/Kg i.p., 30 minutes before the test
# [4] = 4 mg/Kg i.p., 30 minutes before the test, three-minute test
# [5] = 8 mg/Kg i.p., 30 minutes before the test
# [6] = 8 mg/Kg i.p., 30 minutes before the test, three-minute test
# [7] = 16 mg/Kg i.p., 30 minutes before the test
# [8] = 16 mg/Kg i.p., 30 minutes before the test, three-minute test
# [9] = dose given in Table 4 as (4), i.p.
# [10] = dose given in Table 4 as (4), i.p., 25 glass spheres, counted at the end of 30 minutes
# [11] = dose given in Table 4 as (8), i.p.
# [12] = dose given in Table 4 as (8), i.p., 25 glass spheres, counted at the end of 30 minutes
# [13] = withdrawal phase, 64 mg/kg p.o.
structure (smiles),measurement,setting,value
"Cc1nnc2n1-c1ccc(Cl)cc1C(c1ccccc1)=NC2 [Alprazolam, alprazolam]",Time spent in the clear compartment (seconds) (mean ± mean standard error),"mice (RJ:NMRI, males); mouse, in vivo",103.9 ± 11.5 s and 126.9 ± 10.1 s and 112.7 ± 15.5 s
same,Number of Hidden Spheres (mean ± mean standard error),"Mice [1]; mouse, in vivo","1,6 ± 1,4"
same,Number of Hidden Spheres Compared to vehicle control %,"Mice [1]; mouse, in vivo",-92%
same,amount of food consumed,"Mice [2]; mouse, in vivo",significant reduction in the amount of food consumed on the first day of abstinence
same,"body weight, amount of food consumed and rectal temperature (the three studied parameters)","Mice [2]; mouse, in vivo",showed no significant changes
same,withdrawal syndrome after an extended administration regimen,"Mice [2]; mouse, in vivo, po",induces withdrawal syndrome
"COc1ccccc1N1CCN(CCn2cnc3ccccc3c2=O)CC1 [Compound (A), 3-(2-(-4-(2-methoxyphenyl)piperazin-1-yl)ethyl)quinazolin-4(3H)-one]",Time spent in the clear compartment compared to vehicle %,"mice (RJ:NMRI, males); [3]",+8%
same,Time spent in the clear compartment (seconds) (mean ± mean standard error),"mice (RJ:NMRI, males); [4]",79.6 ± 15.4 s
same,Time spent in the clear compartment compared to vehicle %,"mice (RJ:NMRI, males); [5]",+111%
same,Time spent in the clear compartment (seconds) (mean ± mean standard error),"mice (RJ:NMRI, males); [6]",155.1 ± 14.4 s
same,Time spent in the clear compartment compared to vehicle %,"mice (RJ:NMRI, males); [7]",+93%
same,Time spent in the clear compartment (seconds) (mean ± mean standard error),"mice (RJ:NMRI, males); [8]",141.7 ± 13.4 s
same,permanence time in the clear compartment (result in words),"mice (RJ:NMRI, males)",efficient in extending the permanence time in the clear compartment
same,Number of Hidden Spheres Compared to vehicle control %,Mice [1]; [9],-82%
same,Number of Hidden Spheres (mean ± mean standard error),Mice [1]; [10],3.5 ± 2.4
same,Number of Hidden Spheres Compared to vehicle control %,Mice [1]; [11],-98%
same,Number of Hidden Spheres (mean ± mean standard error),Mice [1]; [12],0.3 ± 0.3
same,number of hidden spheres (result in words),Mice [1]; i.p.,significantly reduced the number of hidden spheres
same,withdrawal syndrome after an extended administration regimen,"Mice [2]; mouse, in vivo, po",does not induce withdrawal syndrome
CNCCC(Oc1ccc(C(F)(F)F)cc1)c1ccccc1 (centres unmarked) [Fluoxetine],Number of Hidden Spheres Compared to vehicle control %,"Mice [1]; 32 mg/kg i.p., positive control",-74%
same,Number of Hidden Spheres (mean ± mean standard error),"Mice [1]; 32 mg/kg i.p., positive control, 25 glass spheres, counted at the end of 30 minutes",4.9 ± 2.0
CN1C(=O)CC(=O)N(c2ccccc2)c2cc(Cl)ccc21 [Clobazam],Time spent in the clear compartment compared to vehicle %,"mice (RJ:NMRI, males); 12 mg/Kg i.p., 30 minutes before the test, reference compound",+41%
same,Time spent in the clear compartment (seconds) (mean ± mean standard error),"mice (RJ:NMRI, males); 12 mg/Kg i.p., 30 minutes before the test, three-minute test, reference compound",104.0 ± 5.2 s
"COc1ccc2cccc(CCNC(C)=O)c2c1 [Agomelatine, agomelatine]",Time spent in the clear compartment compared to vehicle %,"mice (RJ:NMRI, males); 25 mg/Kg i.p., 30 minutes before the test",-12%
same,Time spent in the clear compartment (seconds) (mean ± mean standard error),"mice (RJ:NMRI, males); 25 mg/Kg i.p., 30 minutes before the test, three-minute test",64.7 ± 4.9 s
same,Time spent in the clear compartment compared to vehicle %,"mice (RJ:NMRI, males); 50 mg/Kg i.p., 30 minutes before the test",-4%
same,Time spent in the clear compartment (seconds) (mean ± mean standard error),"mice (RJ:NMRI, males); 50 mg/Kg i.p., 30 minutes before the test, three-minute test",70.6 ± 8.5 s
same,Time spent in the clear compartment compared to vehicle %,"mice (RJ:NMRI, males); 75 mg/Kg i.p., 30 minutes before the test",-3%
same,Time spent in the clear compartment (seconds) (mean ± mean standard error),"mice (RJ:NMRI, males); 75 mg/Kg i.p., 30 minutes before the test, three-minute test",71.3 ± 7.3 s
CNC1=Nc2ccc(Cl)cc2C(c2ccccc2)=[N+]([O-])C1 [Chlordiazepoxide],withdrawal syndrome after an extended administration regimen,"Mice [2]; overall conclusion of the test, p.o., two administrations per day, day 1 to 20",induces a clear withdrawal syndrome
same,behavioral and psychological effects,"Mice [2]; treatment phase, 64 mg/kg p.o.","ptosis, hyperactivity, jumps and dyspnoea"
same,body weight and amount of food consumed,"Mice [2]; treatment phase, 64 mg/kg p.o.",did not induce significant changes
same,rectal temperature,"Mice [2]; treatment phase, 64 mg/kg p.o.",slight increase of rectal temperature
same,behavioral and psychological effects,Mice [2]; [13],"intensified the psychological behaviors and symptoms, mainly dyspnoea and hyperactivity, inducing occasional straub tail and teeth chattering"
same,"body weight, amount of food consumed and rectal temperature",Mice [2]; [13],"clear reduction in body weight and the amount of food consumed, and a significant increase of rectal temperature"
"N#Cc1ccccc1N1CCN(CCn2cnc3ccccc3c2=O)CC1 [Compound (B), 3-(2-(4-(2-cyanophenyl)piperazin-1-yl)ethyl)quinazolin-4(3H)-one]",Time spent in the clear compartment compared to vehicle %,"mice (RJ:NMRI, males); [3]",+37%
same,Time spent in the clear compartment (seconds) (mean ± mean standard error),"mice (RJ:NMRI, males); [4]",100.9 ± 15.2 s
same,Time spent in the clear compartment compared to vehicle %,"mice (RJ:NMRI, males); [5]",+40%
same,Time spent in the clear compartment (seconds) (mean ± mean standard error),"mice (RJ:NMRI, males); [6]",103.0 ± 11.5 s
same,Time spent in the clear compartment compared to vehicle %,"mice (RJ:NMRI, males); [7]",+103%
same,Time spent in the clear compartment (seconds) (mean ± mean standard error),"mice (RJ:NMRI, males); [8]",149.3 ± 11.0 s
same,permanence time in the clear compartment (result in words),"mice (RJ:NMRI, males)",efficient in extending the permanence time in the clear compartment
same,Number of Hidden Spheres Compared to vehicle control %,Mice [1]; [9],-42%
same,Number of Hidden Spheres (mean ± mean standard error),Mice [1]; [10],11.0 ± 3.3
same,Number of Hidden Spheres Compared to vehicle control %,Mice [1]; [11],-89%
same,Number of Hidden Spheres (mean ± mean standard error),Mice [1]; [12],2.1 ± 2.1
same,number of hidden spheres (result in words),Mice [1]; i.p.,significantly reduced the number of hidden spheres
"COc1ccc(C(CN(C)C)C2(O)CCCCC2)cc1 (centres unmarked) [Venlafaxine, venlafaxine]",Time spent in the clear compartment compared to vehicle %,"mice (RJ:NMRI, males); [5]",-2%
same,Time spent in the clear compartment (seconds) (mean ± mean standard error),"mice (RJ:NMRI, males); [6]",72.3 ± 7.3 s
same,Time spent in the clear compartment compared to vehicle %,"mice (RJ:NMRI, males); [7]",-12%
same,Time spent in the clear compartment (seconds) (mean ± mean standard error),"mice (RJ:NMRI, males); [8]",65.1 ± 6.0 s
same,Time spent in the clear compartment compared to vehicle %,"mice (RJ:NMRI, males); 32 mg/Kg i.p., 30 minutes before the test",+7%
same,Time spent in the clear compartment (seconds) (mean ± mean standard error),"mice (RJ:NMRI, males); 32 mg/Kg i.p., 30 minutes before the test, three-minute test",78.9 ± 4.9 s
